Reference: patent US20080280833A1, “Therapeutic Peptides Derived from Urokinase Plasminogen Activator Receptor” (priority 2005, published 2008)

Key:
LB6 cells = assay: Chemotaxis assay, modified Boyden chambers, LB6 cells; assay type: cell-based, mouse
Description: (§1) Chemotaxis assay was performed as described (Degryse et al., 1999, 2001a, 2001b) with modified Boyden chambers. Filters (5 μm pore size, Neuro Probe, Gaithersburg, Md.) were treated with collagen I (100 μg/ml) and fibronectin (10 μg/ml, Roche).≈40-50,000 cells in serum-free DMEM were added to the upper well and the chemoattractants tested added to the lower well. When present, antibodies, or inhibitors were added in both wells. After overnight migration at 37° C., cells remaining on the upper surface of filters were scraped off and filters were fixed in methanol and stained in a solution of 10% (w/v) crystal violet in 20% (v/v) methanol. The experiments were performed at least twice in triplicate and the results, expressed as fold over control, are the mean ±SD of the number of cells counted in ten high power fields per filter. Random cell migration, i.e. migration in the absence of chemoattractant, was given the arbitrary value of 100%.

LB6 clone 19 cells [1] = assay: Chemotaxis assay, LB6 clone 19 cells (wild-type human uPAR); assay type: cell-based, mouse; conditions: VN 5 μg/ml
Description: as §1

NIH 3T3 cells = assay: Chemotaxis assay, NIH 3T3 cells; assay type: cell-based, mouse; conditions: NIH 3T3, VN 1 μg/ml
Description: as §1

NIH 3T3-uPAR cells = assay: Chemotaxis assay, NIH 3T3-uPAR cells; assay type: cell-based, mouse; conditions: VN 1 μg/ml
Description: as §1

HEK-293 cells = assay: Chemotaxis assay, HEK-293 cells; assay type: cell-based, human; conditions: HEK-293, VN 1 μg/ml
Description: as §1

HEK-293-uPAR cells = assay: Chemotaxis assay, HEK-293-uPAR cells; assay type: cell-based, human
Description: as §1

LB6-D1HD3 cells [2] = assay: Chemotaxis assay, LB6-D1HD3 cells (uPAR lacking domain 2); assay type: cell-based, mouse
Description: as §1

LB6-D1D2 cells [3] = assay: Chemotaxis assay, LB6-D1D2 cells (uPAR lacking domain 3); assay type: cell-based, mouse
Description: as §1

NIH 3T3-D1HD3 cells = assay: Chemotaxis assay, NIH 3T3-D1HD3 cells; assay type: cell-based, mouse
Description: as §1

RSMC = assay: Immunofluorescence microscopy, actin cytoskeleton and cell morphology; assay type: cell-based, rat; conditions: 30 minutes at 37° C., peptide 1 pM or VN 1 μg/ml
Description: (§2) As previously described (Degryse et al., 1999; 2004) 15,000-25,000 cells (20-40% confluence), were seeded on glass coverslips in 2 cm^2 well, cultured for 24 hours in DMEM plus 10% FCS, washed with PBS and cultured for another 24 hours without FCS. After stimulation, RSMC were fixed for 20 min at RT with 3% paraformaldehyde, 2% sucrose in PBS pH 7.5, washed 3 times with PBS-BSA 0.2%, permeabilized with 20 mM hepes pH 7.4, 300 mM saccharose, 50 mM NaCl, 3 mM MgCl2, 0.5% (v/v) Triton X-100 for 3 min at 4° C., and washed 3 times with PBS-BSA 0.2%. RSMC were incubated in PBS-BSA 2% for 15 min at 37° C., then with anti-Stat1 primary antibodies for 30 min at 37° C., washed 3 times with PBS-BSA 0.2%, and further incubated with PBS-BSA 2% for 15 min at 37° C. Cells were stained with the secondary TRITC-antibody and with FITC-phalloidin for visualization of filamentous actin, for 30 min at 37° C. DAPI (4′,6-diamidino-2-phenylindole, Roche) was used to label the nucleus. Finally, after 3 washes with PBS-BSA 0.2%, one with distilled water, coverslips were mounted with 20% (w/v) Mowiol. Fluorescence Photographs were taken with a Zeiss Axiophot microscope

Stat1 = assay: Immunofluorescence microscopy, Stat1 distribution; assay type: cell-based, rat; conditions: RSMC, 30 minutes at 37° C., peptide 1 pM or VN 1 μg/ml
Description: as §2
To quantify the activation of Stat1, random pictures were taken and nuclei positively stained for Stat1 were counted and expressed in percent.

[4] = system: human HT1080 fibrosarcoma cells; assay: Matrigel invasion assay; assay type: cell-based; conditions: substance alone, 24 hours at 37° C.
LB6 clone 19 cells [5] = assay: 125I-VN cell binding, LB6 clone 19; design: species or system mouse; conditions: 125I-VN 0.5 nM, on ice 90 minutes
Description: (§3) VN was iodinated using Iodogen (Pierce Chemical Co.) at a specific activity of 30-60×10^6 cpm/mg. Briefly, 10 μg of VN dissolved in 0.1 M tris pH 7.6, 0.1% (v/v) Tween 80, were incubated with 0.5 μCi ^125Iodine for 15 minutes at room temperature, in a volume of 100 μl. The reaction was stopped by adding 1 ml of stop/elution buffer, 0.1 M tris pH 8.1, 0.1% (v/v) Chaps and 50 μl of N-acetyl tyrosine (10 mg/ml in 0.1 M tris pH 7.4). Labeled VN was separated from unbound ^125Iodine by gel chromatography in PD-10 column (Pharmacia) in the stop/elution buffer.
(§4) Cells were seeded in 96-well culture dishes treated overnight with 1.5% gelatin in PBS pH 7.4, grown to confluence in DMEM plus 10% FCS, then serum-starved for 24 hours in DMEM. Total binding was determined by incubating the cells on ice for 90 minutes in binding buffer (DMEM containing 0.1% (w/v) BSA and 10 mM Hepes pH 7.4) plus 0.5 nM ^125I-VN. Nonspecific binding was measured by competition with a 100 fold excess of unlabeled VN. At the end of the incubation time, the cells were washed 3 times with ice-cold binding buffer and once with ice-cold PBS, then lysed in a solution of 1% SDS, 1% Triton X-100 and the associated radioactivity counted. Cell number was determined in 6 wells per lines cultured in parallel, and the results were standardized as cpm/10^5 cells.

LB6-D1HD3 cells [6] = assay: 125I-VN cell binding, LB6-D1HD3; design: species or system mouse; conditions: 125I-VN 0.5 nM, on ice 90 minutes
Description: as §3, §4

LB6-D1D2 cells [7] = assay: 125I-VN cell binding, LB6-D1D2; design: species or system mouse; conditions: 125I-VN 0.5 nM, on ice 90 minutes
Description: as §3, §4

VN: vitronectin purified from human plasma
VN-dependent cell migration (LB6 cells; LB6 cells, VN 5 μg/ml): 274 ± 3.8 % of control | stimulation of chemotaxis (LB6 cells; untransfected parental LB6 cells): 2.5 fold | VN-dependent cell migration (LB6 clone 19 cells [1]; LB6 clone 19, wild-type uPAR): 906 ± 22.8 % of control | enhancement of VN-directed cell migration of LB6 clone 19 compared to untransfected LB6 cells (LB6 clone 19 cells [1]): 3.3 fold | VN-dependent cell migration (NIH 3T3 cells): 222.7 ± 4.8 % of control | VN-dependent cell migration (NIH 3T3-uPAR cells): 397 ± 11.1 % of control | VN-dependent cell migration (HEK-293 cells): 199.1 % of control | cell migration (HEK-293 cells): 210.84 ± 26.95 % of control | chemotactic effect of VN in HEK-293-uPAR relative to untransfected HEK-293 cells (HEK-293-uPAR cells): 2 fold | VN-dependent cell migration (HEK-293-uPAR cells; HEK-293-uPAR, VN 1 μg/ml): 394.3 % of control | cell migration (HEK-293-uPAR cells; HEK-293-uPAR, VN 1 μg/ml): 417.25 ± 4.64 % of control | VN-dependent cell migration (LB6-D1HD3 cells [2]; LB6-D1HD3, VN 5 μg/ml): 102 ± 5.0 % of control | stimulation of chemotaxis (LB6-D1HD3 cells [2]; LB6 cells transfected with D1HD3-uPAR, even at 10 μg/ml): failed to stimulate | VN-dependent cell migration (LB6-D1D2 cells [3]; LB6-D1D2, VN 5 μg/ml): 280 ± 6.0 % of control | maximal stimulation of chemotaxis (LB6-D1D2 cells [3]; LB6-D1D2 cells, at 1 μg/ml): about four-fold | VN-dependent cell migration (NIH 3T3-D1HD3 cells; NIH 3T3-D1HD3, VN 1 μg/ml): 100 ± 4.0 % of control | stimulation of chemotaxis (NIH 3T3-D1HD3 cells; NIH3T3 cells transfected with D1HD3-uPAR, even at 10 μg/ml): failed to stimulate | cell morphology and actin cytoskeleton organization (RSMC): induced similar changes | Stat1 activation and translocation into the nucleus (Stat1): reproduced this effect on Stat1 localization | stimulation of Matrigel invasiveness of HT1080 cells [4]: stimulate | VN binding to cells (LB6 clone 19 cells [5]): bound | VN binding to cells (LB6-D1HD3 cells [6]): poorly | VN binding to cells (LB6-D1D2 cells [7]): poorly
